Test results reported in patent US20170226518A1, “COMPOSITIONS AND METHODS FOR TREATING CANCER” (Autotelic LLC, priority 2016, published 2017).
In the oligonucleotide strings, read from the 5' end, every base follows the letter of its sugar. An asterisk marks phosphorothioate; unmarked linkages are phosphodiester. Other units and linkages are bracketed, terminal groups are in braces. A string of capitals states the bases alone. d = 2'-deoxy (DNA)

How the values were obtained:
TGFβ2 = TGFβ2 secretion/expression in WiDr colon cancer cells; assay type: cell-based; settings: 10 μM AP12009
Excerpt: The aim of the study was to determine the effect of AP12009 (trabedersen) treatment in combination with 5-Fluorouracil (5-FU) on TGFβ2 secretion and on cellular proliferation of HUP-T3 pancreatic cancer cells and WiDr colon cancer cells in vitro.

[1] = system: C8161 human melanoma cells; assay: C8161 melanoma xenograft model: tumor growth and survival
Protocol: Sixty female athymic nude mice were intradermally inoculated with C8161 human melanoma cells and randomized into six groups of 10 mice. Three groups received monotherapy treatment with either OT-101 (trabedersen) (16 mg/kg) (Group 2) or Dacarbazine (DTIC; 1 or 10 mg/kg; Groups 3, 4). Two groups received combination therapy with OT-101/DTIC at 16/1 mg/kg or 16/10 mg/kg (Groups 5 and 6). Vehicle (0.9% saline, Groups 1, 3, and 4) and OT-101 were administered 3 times/week via subcutaneous injection. Vehicle (0.9% saline, Groups 1 and 2) and DTIC (1 or 10 mg/kg) were administered via intraperitoneal injection four times/week. All OT-101/Trabedersen treatments commenced at day 0 of the study and all DTIC treatments commenced on day 14. Mice were monitored for adverse effects, body weight and tumor size three times weekly. The tumor, lungs, liver and kidneys were excised from all mice at termination and weighed.

A-172 glioma cells = assay: Proliferation of A-172 glioma cells; assay type: cell-based; settings: 7 days, treatment schedule 2*2/1*3 d
Protocol: A-172 glioma cells were treated with a combination of AP12009 (trabedersen) 0 to 10 μM) and different concentrations of TMZ (temozolomide) for 7 days (treatment schedule 2*2/1*3 d).
In summary there is no clear beneficial effect in combining AP12009 with TMZ in A-172 cells.

## trabedersen: TGFβ2 specific phosphorothioate antisense oligodeoxynucleotide with the sequence 5′-CGGCATGTCTATTTTGTA-3′ (SEQ ID No: 1) (antisense dC*dG*dG*dC*dA*dT*dG*dT*dC*dT*dA*dT*dT*dT*dT*dG*dT*dA)
TGFβ2
  TGFβ2 expression (% of untreated control): 54%
[1]; day 42, group 2: OT-101 16 mg/kg s.c. 3 times/week from day 0
  Tumor growth suppressed relative to control group 1: 2%
[1]; group 2: OT-101 16 mg/kg, sacrifice at tumor size 2,000 mm^3
  median survival: 47 days
A-172 glioma cells
  effect on cell proliferation: slightly reduced cell proliferation
